Results on 5 molecules are retold here after patent US20220249597A1, “MIF INHIBITORS AND METHODS OF USE THEREOF” (The Johns Hopkins University, priority 2016, published 2022).

In series [1] the target is T1, MIF (Homo sapiens, UniProt P14174).
T1 sequence (P14174 2-115 limits assumed): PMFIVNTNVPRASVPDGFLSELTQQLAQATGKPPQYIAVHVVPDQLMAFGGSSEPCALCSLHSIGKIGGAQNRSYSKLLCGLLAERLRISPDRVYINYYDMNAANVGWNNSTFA
The note with it: Mg2+ 10 mM with EDTA 50 mM or Ca2+ 2 mM with EDTA 25 mM.
Experimental: (A) In vitro MIF nuclease assay using pcDNA as substrate. […] (C) Pulse-field gel electrophoresis assay of MNNG-induced DNA damage in MIF deficient HeLa cells and wild type HeLa cells treated with or without DPQ (30 μM) or ISO-1 (100 μM).
The reaction was terminated with loading buffer containing 10 mM EDTA and incubation on ice. […] Small DNA substrates were separated on 15% or 25% TBE-urea polyacrylamide (PAGE) gel or 20% TBE PAGE gel. Then gel was stained with 0.5 μg/ml Ethidium Bromide (EtBr) followed by electrophoretic transfer to nylon membrane. Then, Biotin-labeled DNA is further detected by chemiluminescence using Chemiluminescent Nucleic Acid Detection Module (Thermo Scientific).

Series [2] has as its system HeLa cells. As to the kind of experiment: Pulse-field gel electrophoresis assay of MNNG-induced DNA damage in HeLa cells. The series is classed as cell-based, human. The note with it: DPQ 30 μM; ISO-1 100 μM. The text has this: FIGS. 2A-2D. FIG. 2. MIF is a novel nuclease that cleaves genomic DNA.
The test system of series [3] is HeLa cells. Format: cell-based, human. The note with it: DPQ 30 μM. The procedure: FIGS. 21A-21J. FIG. 21. […] Scale bar, 20 μm.
For immunocytochemistry, cells were fixed 4 hours after MNNG or NMDA treatment with 4% paraformaldehyde, permeabilized with 0.05% Triton X-100, and blocked with 3% BSA in PBS. AIF was visualized by Donkey anti-Rabbit Cy3 or donkey anti-rabbit 647. MIF was visualized by donkey anti-mouse cy2 (2 μg/ml), donkey anti-goat Cy2 or donkey anti-goat 647. Immunohistochemistry was performed with an antibody against Flag. Immunofluorescence analysis was carried out with an LSM710 confocal laser scanning microscope (Carl Zeiss) as described (9).

The subject of the next series is cortical neurons. The note with it: N-Arg 100 μM.
In series [4] the target is T1, MIF. As to the kind of experiment: MIF nuclease assay with small DNA substrates. The series is classed as biochemical. On the set-up: GST (N, cleaved yes); made in house; host or cells: Escherichia coli; key to Endo-Nuclease Activity / Exo-Nuclease Activity: Y:yes; N:no. The note with it: for Endo-Nuclease Activity / Exo-Nuclease Activity: MIF on the listed DNA substrate. The text has this: (§1) Human endoG (NM_004435), cyclophilin A (NM_021130), mouse AIF (NM_012019), human MIF (NM_002415) cDNA and their variants were subcloned into glutathione S-transferase (GST)-tagged pGex-6P-1 vector (GE Healthcare) by EcoRI and XhoI restriction sites and verified by sequencing. The protein was expressed and purified from Escherichia coli by glutathione Sepharose. The GST tag was subsequently proteolytically removed for the nuclease assay. MIF point mutants were constructed by polymerase chain reaction (PCR) and verified by sequencing. The purity of MIF proteins that were used in the nuclease assays was further confirmed by mass spectrometry. MIF proteins purified by FPLC were also used in the nuclease assays and no obvious difference was observed between FPLC MIF and non-FPLC MIF proteins. GST protein was used as a negative control in the nuclease assay.

In series [5] the target is T1, MIF. The experiment in a line: Electrophoretic mobility shift assay (EMSA) of MIF with biotin-labeled DNA substrates. The series is classed as binding. On the set-up: GST (N, cleaved yes); made in house; host or cells: Escherichia coli. The note with it: 5′ biotin labeled single stranded substrates, 10 mM Mg2+. Here is the method: EMSA assay was performed using LightShift Chemiluminescent EMSA kit (Thermo Scientific) following the manufactures instruction. Briefly, purified MIF protein (2 μM) was incubated with biotin-labeled DNA substrates (10 nM) in the binding buffer containing 10 mM MgCl2 for 30 min on ice. Then samples were separated on 6% retardation polyacrylamide followed by electrophoretic transfer to nylon membrane.
as §1

Experimental for cortical neurons: (H-J) Nuclear translocation of AIF and MIF after NMDA treatment in the presence or absence PARP inhibitor DPQ or nNOS inhibitor nitro-arginine (N-Arg, 100 μM) in cortical neurons, which was determined by subcellular fractionation. Intensity of MIF and AIF signal is shown in I & J. The experiments were replicated in three independent trials. The experiments were replicated in three independent trials. ***P<0.001, one-way ANOVA.
Primary neuronal cultures from cortex were prepared as previously described (9). Briefly, the cortex was dissected and the cells were dissociated by trituration in modified Eagle's medium (MEM), 20% horse serum, 30 mM glucose, and 2 mM L-glutamine after a 10-min digestion in 0.027% trypsin/saline solution (Gibco-BRL). The neurons were plated on 15-mm multiwell plates coated with polyornithine or on coverslips coated with polyornithine. Neurons were maintained in MEM, 10% horse serum, 30 mM glucose, and 2 mM L-glutamine in a 7% CO2 humidified 37° C. incubator. The growth medium was replaced twice per week. In mature cultures, neurons represent 70 to 90% of the total number of cells. […] Parthanatos was induced by either MNNG (Sigma) in HeLa cells or NMDA (Sigma) in neurons. […]

On to `O=C(O)CN(CCN(CC(=O)O)CC(=O)O)CC(=O)O` [EDTA], for which, at MIF [1], the “Effect on MIF nuclease activity against human genomic DNA” value is recorded as “blocks MIF's nuclease activity”.
Regarding `O=C1NCCc2c(OCCCCN3CCCCC3)cccc21` [DPQ, 3,4-dihydro-5[4-(1-piperindinyl)butoxy]-1(2H)-isoquinoline], in the series with HeLa cells [2], the “Effect on MNNG induced DNA damage / DNA cleavage” value was “prevents MNNG induced DNA cleavage”. For the same molecule, the “Accumulation of MIF and AIF in the nucleus after MNNG treatment” value in the series on HeLa cells [3] was “prevents accumulation of both MIF and AIF in the nucleus”. Also, in the series on cortical neurons, the “Accumulation of MIF and AIF in the nucleus after NMDA administration” value is “prevents accumulation of both MIF and AIF in the nucleus”.
Turning to `COC(=O)CC1CC(c2ccc(O)cc2)=NO1` (stereo not drawn) [ISO-1], in the series with HeLa cells [2], the “Effect on MNNG induced DNA damage / DNA cleavage” value is “fails to prevent MNNG induced DNA damage”.
As to PA^30: 5′ biotin-poly A, SEQ ID NO: 9, in the series with MIF [4], the “Endo-Nuclease Activity” value is “N” and the “Exo-Nuclease Activity” value is “Y”. Moreover, the “MIF cleavage of DNA substrate” value with MIF [4] (single or double stranded substrates, ds substrates MIF 1-4 μM) is “cleave”. Also, the “MIF binding to ssDNA substrate (DNA/MIF complex formation)” value with MIF [5] was “fails to bind”.
In the case of “3F1: 5′ biotin ssDNA MIF substrate, SEQ ID NO: 12 (DNA AAAAAAAAAACAAGTAGCTGGGATTACAGG; DNA, 5' {Biotin}, backbone and methylation of C not given here)”, in the series with MIF [4], the “Endo-Nuclease Activity” value was “Y” and the “Exo-Nuclease Activity” value is “Y”. Further, the “MIF binding to ssDNA substrate (DNA/MIF complex formation)” value in the series with MIF [5] is “clearly binds”.
